In data set [1] the target is T1, PDE10 from rat striatum (Rattus norvegicus, UniProt Q9QYJ6).
T1 construct: 0.5 g of the isolated and frozen striatum was homogenised; from tissue; host or cells: rat striatum, ion-exchange FPLC fractions with PDE10 activity
T1 sequence (Q9QYJ6 1-794): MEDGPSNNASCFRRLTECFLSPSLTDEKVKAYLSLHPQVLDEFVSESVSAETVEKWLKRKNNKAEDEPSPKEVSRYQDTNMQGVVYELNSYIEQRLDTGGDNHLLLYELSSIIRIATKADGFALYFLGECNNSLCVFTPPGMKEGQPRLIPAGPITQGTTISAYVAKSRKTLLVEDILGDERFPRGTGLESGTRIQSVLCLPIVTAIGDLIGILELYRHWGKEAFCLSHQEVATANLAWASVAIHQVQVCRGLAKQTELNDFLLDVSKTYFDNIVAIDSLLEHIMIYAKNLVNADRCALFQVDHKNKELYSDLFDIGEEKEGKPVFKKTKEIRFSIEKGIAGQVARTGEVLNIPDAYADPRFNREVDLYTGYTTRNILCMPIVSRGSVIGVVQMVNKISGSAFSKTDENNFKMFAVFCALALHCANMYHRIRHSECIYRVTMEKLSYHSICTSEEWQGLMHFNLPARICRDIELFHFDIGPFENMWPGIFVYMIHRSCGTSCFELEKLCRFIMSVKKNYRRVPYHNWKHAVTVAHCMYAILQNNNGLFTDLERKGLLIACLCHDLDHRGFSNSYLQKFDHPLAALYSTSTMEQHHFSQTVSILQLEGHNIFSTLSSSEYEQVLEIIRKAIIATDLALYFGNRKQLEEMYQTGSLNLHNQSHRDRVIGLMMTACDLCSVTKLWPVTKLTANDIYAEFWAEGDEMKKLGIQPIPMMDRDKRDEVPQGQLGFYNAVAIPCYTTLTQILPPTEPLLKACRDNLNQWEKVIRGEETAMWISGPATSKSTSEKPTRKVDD
Nature of the data set: Inhibition of PDE10 from rat striatum. It counts as biochemical. As to conditions: 0.1 μM [3H]-cAMP, 37° C., 30 minutes. How it is done: (§1) Phosphodiesterase isoenzyme 10 (PDE10) activity was determined in preparations of rat, pig and guinea pig striatum respectively. Striatum from male Wistar rats (180-200 g), male hybrid pigs (150 kg) and male guinea pigs (CRL (HA), 500 g) respectively were collected and frozen at −70° C.
(§2) For the enzymatic testing of PDE10 activity 0.5 g of the isolated and frozen striatum was homogenised in 10 ml 50 mM Tris/Mg-buffer at 4° C. and centrifuged for one hour at 100000 g.
(§3) Nonspecific activity was tested without the enzyme. […] For determination of IC50 values the Hill-plot, 2-parameter-model, was used.

Data set [2] addresses T2, PDE10 from pig striatum (Sus scrofa, UniProt A0A287B941).
T2 construct: "Striatum from male hybrid pigs (150 kg)"
Kind of data set: Inhibition of PDE10 from pig striatum. It counts as biochemical. Particulars: 0.1 μM [3H]-cAMP, 37° C., 30 minutes. The protocol:
Phosphodiesterase isoenzyme 10 (PDE10) activity was determined in preparations of human recombinant PDE10A and PDE10 from pig striatum, respectively.
Striatum from male hybrid pigs (150 kg) were collected and frozen at −70° C.
At the day of preparation 0.5 g striatum was homogenised in 10 ml 50 mM Tris/Mg-buffer at 4° C. and centrifuged for one hour at 100000 g.
as §3, §1, §2

For data set [3], the system named is MK-801-induced psychosis. Nature of the data set: MK-801-induced psychosis: hyperactivity and stereotyped sniffing. Particulars: p.o.; female Wistar rats; MK-801 0.1 mg/kg i.p. 10 min before test; compound 30 min prior; recorded 1 h. Format: in vivo. How it is done:
Female Wistar rats (Crl: (WI) BR, Charles River, Sulzfeld, Germany) weighing 150 to 180 g were used for the MK-801-induced psychosis. Animals were housed under standard conditions in groups of five on a 12 h light/dark cycle (light on at 0600 h) with ad libitum access to food (Pellets, ssniff M/R 15, Spezialdiät GmbH, Soest/Westfalen) and water.
MK-801 (dizocilpine, MW 337.37) was obtained by Tocris, distributed by Biotrend Chemikalien GmbH, Köln, Germany.
Hydroxyethylcellulose was solved in distilled water.
MK-801 was solved in saline so that an administration volume of 0.5 ml/100 g was reached. The suspensions and solution were placed on a magnetic stirrer before and during dosing procedures.
The behaviour induced by the NMDA antagonist MK-801 is generally accepted as a rat model of psychosis. MK-801 induces stereotyped sniffing, hyperactivity and ataxia in rats after intraperitoneal administration.
Locomotor activity of the rats was recorded by the MotiTest Apparatus (TSE, Bad Homburg, Germany). The test area consisted of a squared arena (45×45 cm) with protective plexiglass walls (20 cm of height) where rats could freely move. Horizontal movements were recorded by 32 infrared photocells arranged along the bottom of each wall of the arena. The activity [sec] was measured by the computer program “ActiMot” (TSE, Bad Homburg, Germany).
Stereotyped sniffing was scored by the experimenter every five minutes for one hour (12 intervals) according to the method described by Andine et al. (1999). The scores of the 12 intervals were summed up at the end of the recording time.
The day of experiment the female rats were placed in the laboratory and received the test compound or vehicle at the appropriate time prior to test. MK-801 0.1 mg/kg was intraperitoneally administered 10 minutes prior to test.
At the beginning of the test the rats were placed in the centre of the squared arena of the MotiTest apparatus. Behaviour of the rats was recorded for one hour. After each run animals were removed and the boxes thoroughly cleaned and dried.
Results were analysed by one way analysis of variance (ANOVA). Tukey test was used for individual comparison. P<0.05 was regarded as significant.

pIC50: −log10 of the molar value. Some results are limits rather than exact numbers.

One may read the pIC50 as the IC50 on a negative log10 scale, so that one unit is a factor of ten. As usually defined, the melting point is the temperature of the solid-liquid transition.

Regarding “8-methoxy-3-methyl-4-(N-propionyl-amino)-1-propyl-imidazo[1,5-a]pyrido[3,2-e]pyrazine [Example 43b]”, the figures for the pIC50 in data set [1] and in data set [2] were 5.62 and 6.05, respectively.
Turning to “4-amino-1-(2-chloro-phenyl)-8-methoxy-3-methyl-imidazo[1,5-a]pyrido[3,2-e]pyrazine [Example 11b]”, the pIC50 in data set [2] is 9.30. In data set [3], the “dose that significantly reversed MK-801-induced hyperactivity” value is no less than 0.5 mg/kg and the “dose that significantly reversed MK-801-induced stereotyped sniffing” value was no less than 0.5 mg/kg.
Turning to “1-ethyl-4-(N-formyl-amino)-8-methoxy-3-methyl-imidazo[1,5-a]pyrido[3,2-e]pyrazine [Example 36b]”, the pIC50 was 6.62 in data set [1] and 7.10 in data set [2].
With “4-amino-3-methyl-1-propyl-imidazo[1,5-a]pyrido[3,2-e]pyrazine [Example 4b]”, the pIC50 in data set [1] was 7.24; in data set [2], 7.57.
The like results for “4-(N-acetyl-amino)-8-methoxy-3-methyl-1-phenyl-imidazo[1,5-a]pyrido[3,2-e]pyrazine [Example 42b]” were, in that order, 7.02 and 7.39.
On to “3,4-dimethyl-8-(piperidin-1-yl)-methoxy-1-propyl-imidazo[1,5-a]pyrido[3,2-e]pyrazine [Example 55a]”, for which the negative logarithm of the IC50 (pIC50) in data set [2] was 7.85. In data set [3], the “dose that significantly reversed MK-801-induced hyperactivity” value is 30 mg/kg and the “dose that significantly reversed MK-801-induced stereotyped sniffing” value is recorded as 30 mg/kg.
As to “4-ethoxycarbonylamino-8-methoxy-3-methyl-1-propyl-imidazo[1,5-a]pyrido[3,2-e]pyrazine [Example 63a]”, the pIC50 is 6.25 in data set [1] and 6.72 in data set [2].
For “4-amino-8-methoxy-3-methyl-1-propyl-imidazo[1,5-a]pyrido[3,2-e]pyrazine [Example 1b]”, in data set [3], the “dose that significantly reversed MK-801-induced hyperactivity” value is given as no less than 10 mg/kg and the “dose that significantly reversed MK-801-induced stereotyped sniffing” value is reported as no less than 10 mg/kg.
Compound `CCc1nc(C)cn1-c1ccc2nc(Cl)c3c(C)nc(CC)n3c2n1` [Intermediate A23] showed a melting point of 138 to 141 °C. Further, the negative logarithm of the IC50 (pIC50) in data set [2] is 8.52.
For `COc1ccc2nc(Cl)c3c(C)nc(CCC(F)(F)F)n3c2n1` [Intermediate A7], in that order: 149 to 153 °C and 7.47.
For the compound `CCCc1nc(C)c2c(N(S(C)(=O)=O)S(C)(=O)=O)nc3ccc(OC)nc3n12` [Example 70a, 4-(N,N-bis-methylsulfonyl)-amino-8-methoxy-3-methyl-1-propyl-imidazo[1,5-a]pyrido[3,2-e]pyrazine], the negative-log IC50 (pIC50) in data set [1] was 7.14.
In the case of “4-amino-8-methoxy-3-methyl-1-phenyl-imidazo[1,5-a]pyrido[3,2-e]pyrazine [Example 10b]”, the pIC50 is 8.30 in data set [1] and 8.52 in data set [2].
The compound `CCCCCc1nc(C)c2c(Cl)nc3ccc(OC)nc3n12` [Intermediate A6] came in with a melting point of 110.5 to 113 °C. In data set [2], this compound showed a negative-log IC50 (pIC50) of 7.25.
With “4-(N-acetyl-amino)-1-ethyl-8-methoxy-3-methyl-imidazo[1,5-a]pyrido[3,2-e]pyrazine [Example 40b]”, the pIC50 in data set [1] was 6.66.
Turning to “4-chloro-8-methoxy-3-methyl-1-propyl-imidazo[1,5-a]pyrido[3,2-e]pyrazine [Intermediate A1]”, the pIC50 in data set [1] is 8.10; in data set [2], 8.40.
In the case of `CCCc1nc(C)cn1-c1ccc2nc(Cl)c3c(C)nc(CCC)n3c2n1` [Intermediate A24], the melting point lay within 134 to 136 °C. The same compound showed a pIC50 in data set [2] of 8.70.
“4-(N-formyl-amino)-8-methoxy-3-methyl-1-propyl-imidazo[1,5-a]pyrido[3,2-e]pyrazine [Example 37b]”: the pIC50 in data set [1] is 7.30; in data set [2] it was 7.54.
Compound `CCc1nc(C)c2c(Br)nc3ccc(O)nc3n12` [Intermediate A26] had a melting point greater than 360 °C. The same compound showed a pIC50 in data set [2] of 7.34.
